Results as given in PubChem BioAssay (NCI).
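Method: 48-hour compound exposure of cells in 96-well plates, five concentrations, linear interpolation of endpoints. GI50 = concentration required for 50% inhibition of growth. At the TGI there is no net growth.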

Experiments:
Assay in all cases: inhibition of tumour cell growth, NCI panel, 48 h
ACHN renal = tested on: ACHN renal
HCC-2998 colon = tested on: HCC-2998 colon
HCT-15 colon = tested on: HCT-15 colon
M14 melanoma = tested on: M14 melanoma
NCI-H226 lung = tested on: NCI-H226 lung
OVCAR-3 ovarian = tested on: OVCAR-3 ovarian
SN12C renal = tested on: SN12C renal
U251 CNS = tested on: U251 CNS
UACC-62 melanoma = tested on: UACC-62 melanoma
UO-31 renal = tested on: UO-31 renal

CC(=O)NNc1nc(C)c(C(=O)NNC(=O)C(=O)Nc2ccc(Cl)cc2Cl)s1
TGI (ACHN renal): 87.9 µM
TGI (HCC-2998 colon): > 100 µM
TGI (HCT-15 colon): > 100 µM
TGI (M14 melanoma): > 100 µM
TGI (NCI-H226 lung): > 100 µM
TGI (OVCAR-3 ovarian): 50.5 µM
TGI (SN12C renal): > 100 µM
TGI (U251 CNS): 82.6 µM
TGI (UACC-62 melanoma): 57.4 µM
TGI (UO-31 renal): 98.2 µM

O=P(O)(O)C1(P(=O)(O)O)CC1
TGI (ACHN renal): > 100 µM
TGI (HCC-2998 colon): > 100 µM
TGI (HCT-15 colon): > 100 µM
TGI (M14 melanoma): > 100 µM
TGI (NCI-H226 lung): > 100 µM
TGI (OVCAR-3 ovarian): > 100 µM
TGI (SN12C renal): > 100 µM
TGI (U251 CNS): > 100 µM
TGI (UACC-62 melanoma): > 100 µM
TGI (UO-31 renal): > 100 µM

N=c1c2c(=N)n3c(nc2nc2n1-c1ccccc1Sc1ccccc1-2)sc1cc(Cl)ccc13
GI50 (ACHN renal): 2.18 µM
TGI (ACHN renal): > 100 µM
GI50 (HCC-2998 colon): 1.32 µM
TGI (HCC-2998 colon): 4.97 µM
GI50 (HCT-15 colon): 2.14 µM
TGI (HCT-15 colon): > 100 µM
GI50 (M14 melanoma): 4.11 µM
TGI (M14 melanoma): > 100 µM
GI50 (NCI-H226 lung): 1.73 µM
TGI (NCI-H226 lung): 16.8 µM
GI50 (OVCAR-3 ovarian): 1.12 µM
TGI (OVCAR-3 ovarian): 4.24 µM
GI50 (SN12C renal): 2.33 µM
TGI (SN12C renal): 32.6 µM
GI50 (U251 CNS): 1.84 µM
TGI (U251 CNS): 6.79 µM
GI50 (UACC-62 melanoma): 1.16 µM
TGI (UACC-62 melanoma): 9.44 µM
GI50 (UO-31 renal): 1.29 µM
TGI (UO-31 renal): 7.68 µM

CN(CCCNC(=O)CCOCCOCCOCCNC(=O)Cc1ccc2ccc3cccc4ccc1c2c34)CCCNc1cc(-c2ccc3ccccc3c2)nc2ccccc12
GI50 (ACHN renal): 0.823 µM
TGI (ACHN renal): 2.2 µM
GI50 (HCC-2998 colon): 0.554 µM
TGI (HCC-2998 colon): 1.03 µM
GI50 (HCT-15 colon): 1.19 µM
TGI (HCT-15 colon): 2.81 µM
GI50 (M14 melanoma): 0.591 µM
TGI (M14 melanoma): 1.14 µM
GI50 (NCI-H226 lung): 3.94 µM
TGI (NCI-H226 lung): 13.3 µM
GI50 (OVCAR-3 ovarian): 0.572 µM
TGI (OVCAR-3 ovarian): 1.17 µM
GI50 (SN12C renal): 3.59 µM
TGI (SN12C renal): 8.44 µM
GI50 (U251 CNS): 0.472 µM
TGI (U251 CNS): 0.938 µM
GI50 (UACC-62 melanoma): 1.12 µM
TGI (UACC-62 melanoma): 4.55 µM
GI50 (UO-31 renal): 5.1 µM
TGI (UO-31 renal): 13.6 µM

O=S(=O)(c1cnccc1N1CCN(CCO)CC1)N1CCCC1
TGI (ACHN renal): > 100 µM
TGI (HCC-2998 colon): > 100 µM
TGI (HCT-15 colon): > 100 µM
TGI (M14 melanoma): > 100 µM
TGI (NCI-H226 lung): > 100 µM
TGI (OVCAR-3 ovarian): > 100 µM
TGI (SN12C renal): > 100 µM
TGI (U251 CNS): > 100 µM
TGI (UACC-62 melanoma): > 100 µM
TGI (UO-31 renal): > 100 µM

COc1cc(-c2nn(-c3cccc(NC(=O)c4ccc(Cl)c(C(F)(F)F)c4)c3)cc2-c2ccncc2)ccc1Cl
GI50 (ACHN renal): 1.91 µM
TGI (ACHN renal): > 32.5 µM
GI50 (HCC-2998 colon): 9.89 µM
TGI (HCC-2998 colon): > 32.5 µM
GI50 (HCT-15 colon): 3.15 µM
TGI (HCT-15 colon): > 32.5 µM
GI50 (M14 melanoma): 2.31 µM
TGI (M14 melanoma): > 32.5 µM
GI50 (NCI-H226 lung): 7.83 µM
TGI (NCI-H226 lung): > 32.5 µM
GI50 (OVCAR-3 ovarian): 1.43 µM
TGI (OVCAR-3 ovarian): 15.2 µM
GI50 (SN12C renal): 7.15 µM
TGI (SN12C renal): > 32.5 µM
GI50 (U251 CNS): 2.39 µM
TGI (U251 CNS): > 32.5 µM
GI50 (UACC-62 melanoma): 1.6 µM
TGI (UACC-62 melanoma): > 32.5 µM
GI50 (UO-31 renal): 0.551 µM
TGI (UO-31 renal): > 32.5 µM

CN(C)C(=S)SCC(=O)Nc1ccccc1
TGI (ACHN renal): > 100 µM
TGI (HCC-2998 colon): > 100 µM
TGI (HCT-15 colon): > 100 µM
TGI (M14 melanoma): > 100 µM
TGI (NCI-H226 lung): > 100 µM
TGI (OVCAR-3 ovarian): > 100 µM
TGI (SN12C renal): > 100 µM
TGI (U251 CNS): > 100 µM
TGI (UACC-62 melanoma): > 100 µM
TGI (UO-31 renal): > 100 µM

CC(=O)NC(CC(C)C)C(=O)NC(Cc1ccccc1)C(=S)N1CCCC1 (centres undefined)
TGI (ACHN renal): > 100 µM
TGI (HCC-2998 colon): > 100 µM
TGI (HCT-15 colon): > 100 µM
TGI (M14 melanoma): > 100 µM
TGI (NCI-H226 lung): > 100 µM
TGI (OVCAR-3 ovarian): > 100 µM
TGI (SN12C renal): > 100 µM
TGI (U251 CNS): > 100 µM
TGI (UACC-62 melanoma): > 100 µM
TGI (UO-31 renal): > 100 µM

O=C1/C=C/[C@@H](O)[C@@H]2C[C@@H](O)C[C@H]2/C=C/CCC[C@H](C(F)(F)F)O1
GI50 (ACHN renal): 0.197 µM
GI50 (HCC-2998 colon): 1.14 µM
TGI (HCC-2998 colon): 9.2 µM
GI50 (HCT-15 colon): 0.32 µM
TGI (HCT-15 colon): 6.98 µM
GI50 (M14 melanoma): 0.171 µM
TGI (M14 melanoma): 3.71 µM
GI50 (NCI-H226 lung): 0.0687 µM
TGI (NCI-H226 lung): 0.68 µM
GI50 (OVCAR-3 ovarian): 0.103 µM
TGI (OVCAR-3 ovarian): 0.464 µM
GI50 (SN12C renal): 0.779 µM
TGI (SN12C renal): 13.8 µM
GI50 (U251 CNS): 1.7 µM
TGI (U251 CNS): > 100 µM
GI50 (UACC-62 melanoma): 0.223 µM
TGI (UACC-62 melanoma): > 35.4 µM
GI50 (UO-31 renal): 0.0813 µM
TGI (UO-31 renal): 2.25 µM

CCn1c(-c2nonc2N)nc2cncc(C(=O)N3CC[C@H](N)C3)c21
GI50 (ACHN renal): > 25 µM
TGI (ACHN renal): > 25 µM
GI50 (HCC-2998 colon): > 25 µM
TGI (HCC-2998 colon): > 25 µM
GI50 (HCT-15 colon): 8.29 µM
TGI (HCT-15 colon): > 25 µM
GI50 (M14 melanoma): 24.6 µM
TGI (M14 melanoma): > 25 µM
GI50 (NCI-H226 lung): 0.966 µM
TGI (NCI-H226 lung): > 25 µM
GI50 (OVCAR-3 ovarian): > 25 µM
TGI (OVCAR-3 ovarian): > 25 µM
GI50 (SN12C renal): > 25 µM
TGI (SN12C renal): > 25 µM
GI50 (U251 CNS): > 25 µM
TGI (U251 CNS): > 25 µM
GI50 (UACC-62 melanoma): > 25 µM
TGI (UACC-62 melanoma): > 25 µM
GI50 (UO-31 renal): 0.269 µM
TGI (UO-31 renal): > 8.77 µM

Nc1c(Cl)ncnc1NCCCNc1ncnc(Cl)c1N
TGI (ACHN renal): > 100 µM
TGI (HCC-2998 colon): > 100 µM
TGI (HCT-15 colon): > 100 µM
TGI (M14 melanoma): > 100 µM
TGI (NCI-H226 lung): > 100 µM
TGI (OVCAR-3 ovarian): > 100 µM
TGI (SN12C renal): > 100 µM
TGI (U251 CNS): > 100 µM
TGI (UACC-62 melanoma): > 100 µM
TGI (UO-31 renal): > 100 µM

O=c1[nH]cnc2c1nnn2CCCCCCCCCCCCn1nnc2c(=O)[nH]cnc21
TGI (ACHN renal): > 100 µM
TGI (HCC-2998 colon): > 100 µM
TGI (HCT-15 colon): > 100 µM
TGI (M14 melanoma): > 100 µM
TGI (NCI-H226 lung): 63.5 µM
TGI (OVCAR-3 ovarian): > 100 µM
TGI (SN12C renal): > 100 µM
TGI (U251 CNS): 52.8 µM
TGI (UACC-62 melanoma): > 78 µM
TGI (UO-31 renal): > 100 µM

CC(=O)[O][Hg][c]1c(C)c(C)cc(C)c1C
GI50 (ACHN renal): 3.71 µM
TGI (ACHN renal): 8.18 µM
GI50 (HCC-2998 colon): 1.37 µM
TGI (HCC-2998 colon): 2.72 µM
GI50 (HCT-15 colon): 1.49 µM
TGI (HCT-15 colon): 3.88 µM
GI50 (M14 melanoma): 1.36 µM
TGI (M14 melanoma): 2.88 µM
GI50 (NCI-H226 lung): 2.05 µM
TGI (NCI-H226 lung): 3.87 µM
GI50 (OVCAR-3 ovarian): 1.36 µM
TGI (OVCAR-3 ovarian): 2.71 µM
GI50 (SN12C renal): 1.94 µM
TGI (SN12C renal): 4.48 µM
GI50 (U251 CNS): 0.765 µM
TGI (U251 CNS): 2.26 µM
GI50 (UACC-62 melanoma): 1.69 µM
TGI (UACC-62 melanoma): 4.59 µM
GI50 (UO-31 renal): 1.68 µM
TGI (UO-31 renal): 3.25 µM

CC[C@H](C)[C@H](NC(=O)CN(C)C)C(=O)N(C)[C@H](C[C@@H](OC(C)=O)c1nc(C(=O)NC23CC(C(=O)OC)(C2)C3)cs1)C(C)C
GI50 (ACHN renal): 2.28 µM
TGI (ACHN renal): > 25 µM
GI50 (HCC-2998 colon): 0.49 µM
TGI (HCC-2998 colon): > 25 µM
GI50 (HCT-15 colon): 1.01 µM
TGI (HCT-15 colon): > 25 µM
GI50 (M14 melanoma): 0.0995 µM
TGI (M14 melanoma): > 5.78 µM
GI50 (NCI-H226 lung): > 25 µM
TGI (NCI-H226 lung): > 25 µM
GI50 (OVCAR-3 ovarian): 0.0804 µM
TGI (OVCAR-3 ovarian): > 7.19 µM
GI50 (SN12C renal): 0.268 µM
TGI (SN12C renal): > 25 µM
GI50 (U251 CNS): 0.417 µM
TGI (U251 CNS): > 25 µM
GI50 (UACC-62 melanoma): 0.237 µM
TGI (UACC-62 melanoma): > 25 µM
GI50 (UO-31 renal): 12.6 µM
TGI (UO-31 renal): > 25 µM

CN1CSC(=S)N(Cc2ccccc2)C1
GI50 (ACHN renal): 14.1 µM
TGI (ACHN renal): 27.1 µM
GI50 (HCC-2998 colon): 71 µM
TGI (HCC-2998 colon): > 100 µM
GI50 (HCT-15 colon): 4.74 µM
TGI (HCT-15 colon): 22 µM
GI50 (M14 melanoma): 6.65 µM
TGI (M14 melanoma): 21.8 µM
GI50 (NCI-H226 lung): 70.5 µM
TGI (NCI-H226 lung): > 100 µM
GI50 (OVCAR-3 ovarian): 3.96 µM
TGI (OVCAR-3 ovarian): 15 µM
GI50 (SN12C renal): 15.4 µM
TGI (SN12C renal): 35.7 µM
GI50 (U251 CNS): 13.5 µM
TGI (U251 CNS): 30.2 µM
GI50 (UACC-62 melanoma): 13.4 µM
TGI (UACC-62 melanoma): 36 µM
GI50 (UO-31 renal): 7.93 µM
TGI (UO-31 renal): 21.5 µM
